In patent publication US4401660A, “Ester derivatives of 5-O-mycaminosyl tylonolide and method of using same” (Eli Lilly and Company, priority 1981, dated 1983):
Like-named read-outs stand apart in the source and are kept apart here.

Assays:
[1] = test system: Staphylococcus aureus X1.1; test: MIC, standard agar-dilution assay (Table II); format: cell-based; parameters: unit not given here
Experimental: (§1) The MIC's in Table II were determined by standard agar-dilution assays. The MIC's in Table III were obtained using a conventional broth-dilution microtiter test.

[2] = test system: Staphylococcus epidermidis EPI1; test: MIC, standard agar-dilution assay (Table II); format: cell-based; parameters: unit not given here
Experimental: as §1

[3] = test system: Streptococcus pneumoniae Park I; test: MIC, standard agar-dilution assay (Table II); format: cell-based; parameters: unit not given here
Experimental: as §1

[4] = test system: Staphylococcus aureus V41; test: MIC, standard agar-dilution assay (Table II); format: cell-based; parameters: unit not given here; details: Staphylococcus aureus V41, penicillin-resistant strain
Experimental: as §1

[5] = test system: Haemophilus influenzae Holt; test: MIC, standard agar-dilution assay (Table II); format: cell-based; parameters: unit not given here; details: ampicillin-sensitive strain
Experimental: as §1

[6] = test system: Streptococcus Group D 9960; test: MIC, standard agar-dilution assay (Table II); format: cell-based; parameters: unit not given here
Experimental: as §1

[7] = test system: Staphylococcus aureus X400; test: MIC, standard agar-dilution assay (Table II); format: cell-based; parameters: unit not given here; details: Staphylococcus aureus X400, methicillin-resistant strain
Experimental: as §1

[8] = test system: Staphylococcus aureus S13E; test: MIC, standard agar-dilution assay (Table II); format: cell-based; parameters: unit not given here
Experimental: as §1

[9] = test system: Streptococcus pyogenes C203; test: MIC, standard agar-dilution assay (Table II); format: cell-based; parameters: unit not given here
Experimental: as §1

[10] = test system: Streptococcus Group D X66; test: MIC, standard agar-dilution assay (Table II); format: cell-based; parameters: unit not given here
Experimental: as §1

[11] = test system: Staphylococcus epidermidis EPI2; test: MIC, standard agar-dilution assay (Table II); format: cell-based; parameters: unit not given here
Experimental: as §1

[12] = test system: Haemophilus influenzae R252; test: MIC, standard agar-dilution assay (Table II); format: cell-based; parameters: unit not given here; details: Haemophilus influenzae R252, ampicillin-resistant strain
Experimental: as §1

[13] = test system: Pasteurella multocida; test: Treatment of Pasteurella infections in chicks (Table V); format: in vivo, one-day-old chicks; details: Pasteurella multocida, sc, 4 h; 30 mg/kg by subcutaneous injection one and four hours post challenge; read-out: Deaths in Treated Chicks/Number Treated (converted)
Summary of the method: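 Dosing was 30 mg/kg by subcutaneous injection, one and four hours after challenge. Day-old chicks received 0.1 ml of a 10^-3 dilution of a 20-hour tryptose broth culture of avian P. multocida subcutaneously. Nonmedicated infected chicks served as controls, ten per group.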

[14] = test system: Pasteurella multocida 68C; test: MIC, broth-dilution microtiter test (Table III); format: cell-based; parameters: unit not given here
Experimental: as §1

[15] = test system: Streptococcus sp. 80; test: MIC, broth-dilution microtiter test (Table III); format: cell-based; parameters: unit not given here
Experimental: as §1

[16] = test system: Pasteurella haemolytica 23C; test: MIC, broth-dilution microtiter test (Table III); format: cell-based; parameters: unit not given here
Experimental: as §1

[17] = test system: Staphylococcus aureus; test: MIC, broth-dilution microtiter test (Table III); format: cell-based; parameters: unit not given here
Experimental: as §1

[18] = test system: Mycoplasma hyorhinis; test: MIC, broth-dilution microtiter test (Table III); format: cell-based; parameters: unit not given here
Experimental: as §1

[19] = test system: Pasteurella multocida 40G; test: MIC, broth-dilution microtiter test (Table III); format: cell-based; parameters: unit not given here
Experimental: as §1

[20] = test system: Pasteurella multocida 22A; test: MIC, broth-dilution microtiter test (Table III); format: cell-based; parameters: unit not given here
Experimental: as §1

[21] = test system: Pasteurella haemolytica 41D; test: MIC, broth-dilution microtiter test (Table III); format: cell-based; parameters: unit not given here
Experimental: as §1

[22] = test system: Mycoplasma synoviae; test: MIC, broth-dilution microtiter test (Table III); format: cell-based; parameters: unit not given here
Experimental: as §1

[23] = test system: Pasteurella multocida 17E; test: MIC, broth-dilution microtiter test (Table III); format: cell-based; parameters: unit not given here; details: bovine isolate
Experimental: as §1

[24] = test system: Pasteurella multocida 60A; test: MIC, broth-dilution microtiter test (Table III); format: cell-based; parameters: unit not given here; details: avian isolate
Experimental: as §1

[25] = test system: Pasteurella haemolytica 22C; test: MIC, broth-dilution microtiter test (Table III); format: cell-based; parameters: unit not given here
Experimental: as §1

[26] = test system: Mycoplasma gallisepticum; test: MIC, broth-dilution microtiter test (Table III); format: cell-based; parameters: unit not given here
Experimental: as §1

[27] = test system: Streptococcus pyogenes C203; test: ED50 in mice with experimental infections (Table IV); format: in vivo; details: Streptococcus pyogenes, doses given 1 and 4 hours postinfection
Summary of the method: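 Read-out is ED50, the mg/kg dose protecting half of infected mice; values refer to each of two doses, given 1 and 4 hours after infection.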

[28] = C203, oral, read-out: ED50, Oral
[29] = C203, sc, subcutaneous, read-out: ED50, Subcutaneous

Row | SMILES | minimal inhibitory concentration (MIC) [1] | minimal inhibitory concentration (MIC) [2] | minimal inhibitory concentration (MIC) [3] | minimal inhibitory concentration (MIC) [4] | minimal inhibitory concentration (MIC) [5] | minimal inhibitory concentration (MIC) [6] | minimal inhibitory concentration (MIC) [7] | minimal inhibitory concentration (MIC) [8] | minimal inhibitory concentration (MIC) [9] | minimal inhibitory concentration (MIC) [10] | minimal inhibitory concentration (MIC) [11] | minimal inhibitory concentration (MIC) [12] | mortality at 30 mg/kg [13] [%] | minimal inhibitory concentration (MIC) [14] | minimal inhibitory concentration (MIC) [15] | minimal inhibitory concentration (MIC) [16] | minimal inhibitory concentration (MIC) [17] | minimal inhibitory concentration (MIC) [18] | minimal inhibitory concentration (MIC) [19] | minimal inhibitory concentration (MIC) [20] | also measured
1 | CCC1OC(=O)CC(O)C(C)C(OC2OC(C)C(O)C(N(C)C)C2O)C(CC=O)CC(C)C(=O)C=CC(C)=CC1COC(=O)NCc1ccccc1 (centres unmarked) [Compound 76] | 0.125 | 0.125 | 0.015 | 0.125 | 0.5 | 0.125 | 0.25 | 0.125 | 0.06 | 0.25 | 0.125 | 1 | 100 | 3.12 | 0.39 | 3.12 | 0.39 | 0.78 | 6.25 | > 50 | minimal inhibitory concentration (MIC) [21]: 3.12; minimal inhibitory concentration (MIC) [22]: < 0.048; minimal inhibitory concentration (MIC) [23]: 6.25; minimal inhibitory concentration (MIC) [24]: 6.25; minimal inhibitory concentration (MIC) [25]: 6.25; minimal inhibitory concentration (MIC) [26]: 0.097; ED50 [27, 28]: > 100 mg/kg; ED50 [27, 29]: 25 mg/kg
2 | CCC1OC(=O)CC(O)C(C)C(OC2OC(C)C(O)C(N(C)C)C2O)C(CC=O)CC(C)C(=O)C=CC(C)=CC1COC(=O)CCCC(=O)OC (centres unmarked) [Compound 72] | 0.125 | 0.25 | 0.03 | 0.25 | 2 | 0.25 | 0.25 | 0.25 | 0.125 | 0.25 | 0.25 | 1 | 50 | 3.12 | 1.56 | 6.25 | 1.56 | 25 | 3.12 | 3.12 | minimal inhibitory concentration (MIC) [21]: 12.5; minimal inhibitory concentration (MIC) [22]: 0.78; minimal inhibitory concentration (MIC) [23]: 6.25; minimal inhibitory concentration (MIC) [24]: 3.12; minimal inhibitory concentration (MIC) [25]: 12.5; minimal inhibitory concentration (MIC) [26]: 0.195; ED50 [27, 28]: 87 mg/kg; ED50 [27, 29]: 2.3 mg/kg
